Values of other authors in patent US20190038644A1, “PREPARATION FOR NASAL-NASOPHARYNGEAL TREATMENT” (priority 2017, published 2019).

What was measured:
[1] = not metabolized like other sugars, does not alter blood sugar levels
[2] = test system: E. coli adherence to human uroepithelial cells; conditions: addition of 2.5% D-mannose to E. coli uroepithelial cell suspensions; even when epithelial cells highly receptive
[3] = test system: E. Coli and other bacteria; conditions: versus fructose in cranberries

For O=C[C@@H](O)[C@@H](O)[C@H](O)[C@H](O)CO [D-mannose], the “entry into blood stream” value [1] is listed as “does not enter the blood stream”, the “inhibition of adherence of E. coli to uroepithelial cells” value [2] is listed as “completely inhibited adherence” and the “activity in inhibiting adherence relative to the fructose in cranberries” value [3] is listed as 10 times.
